Experimental data reported in patent publication US12503438B2, “Compounds for the treatment of kinase-dependent disorders” (Exelixis, Inc., priority 2019, dated 2025).

Tests used:
KDR = KDR (Homo sapiens, UniProt P35968); assay: Human KDR kinase assay (33P-phosphoryl transfer radiometric, KinaseProfiler); design: Human KDR (residues K790-V1356, 55 nM); purchased Eurofins Pharma Discovery Services UK Limited (KinaseProfiler service); details: biochemical activity; 10 μM ATP
Procedure: (§1) Kinase activity and compound inhibition were investigated using the ^33P-Phosphoryl transfer radiometric kinase assay, performed using the KinaseProfiler™ service of Eurofins Pharma Discovery Services UK Limited. Dose-response experiments were performed using nine compound concentrations in a 96-well microtiter plate. For each assay, all compounds were prepared to a 50× final assay concentration (50 μM) in 100% DMSO, then diluted in a half-log series, with the final top concentration at 1 μM. This working stock of the compound was added to the assay well as the first component in the reaction, followed by the remaining components as detailed in the following assay protocols below. The positive control wells (100% kinase activity) contain all components of the reaction including 2% DMSO (control for solvent effects), except the compound of interest. Blank wells contain all components of the reaction, with the reference inhibitor, staurosporine. This reference compound was used to abolish kinase activity and generated the 0% kinase activity base-line. IC50 values were calculated by nonlinear regression analysis using the sigmoidal dose-response (variable slope) curve fit on XLFit version 5.3 (ID Business Solutions).
(§2) Human KDR (residues K790-V1356, 55 nM) was incubated with 8 mM MOPS pH 7.0, 0.2 mM EDTA, 0.33 mg/mL myelin basic protein, 10 mM magnesium acetate, and 10 μM [γ-^33P-ATP]. The reaction was initiated by the addition of the Mg/ATP mix. After incubation for 40 minutes at room temperature, the reaction was stopped by the addition of phosphoric acid to a concentration of 0.5%. A reaction aliquot of 10 μL was then spotted onto a P30 filtermat and washed four times for 4 minutes in 0.425% phosphoric acid and once in methanol prior to drying and scintillation counting. Incorporated ^33P was measured using the Wallac Microbeta scintillation counter (Perkin Elmer).

Human Mer = target: T1, Human Mer (Homo sapiens, UniProt Q12866); assay: Human Mer kinase assay (33P-phosphoryl transfer radiometric, KinaseProfiler); details: biochemical activity; 10 μM ATP
T1 construct: Human Mer (residues R557-E882 with H628Q and R794A, 0.7 nM); purchased Eurofins Pharma Discovery Services UK Limited (KinaseProfiler service)
T1 sequence (Q12866 557-882 limits assumed): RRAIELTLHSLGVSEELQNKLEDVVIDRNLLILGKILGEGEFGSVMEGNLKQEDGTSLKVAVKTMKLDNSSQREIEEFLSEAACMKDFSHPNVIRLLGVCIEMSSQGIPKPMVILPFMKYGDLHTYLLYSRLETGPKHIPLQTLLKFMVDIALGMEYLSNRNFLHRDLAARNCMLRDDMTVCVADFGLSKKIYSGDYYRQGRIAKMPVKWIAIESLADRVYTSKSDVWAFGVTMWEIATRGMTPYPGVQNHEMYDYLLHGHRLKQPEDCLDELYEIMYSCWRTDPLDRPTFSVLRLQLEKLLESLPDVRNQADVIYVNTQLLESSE
Procedure: as §1
as §2, with “Mer” for “KDR”, “R557-E882 with H628Q and R794A, 0.7” for “K790-V1356, 55”, “30 mM NaCl, 250 μM GGMEDIYFEFMGGKKK,” for “0.33 mg/mL myelin basic protein,”, “acetate” for “acetate,”, “[y-^33P-ATP].” for “[γ-^33P-ATP].”

Met = Met (Homo sapiens, UniProt P08581); assay: Human Met kinase assay (33P-phosphoryl transfer radiometric, KinaseProfiler); design: Human Met (residues R974-S1390 with A1209G and V1290L, 3.4 nM); purchased Eurofins Pharma Discovery Services UK Limited (KinaseProfiler service); details: biochemical activity; 10 μM ATP; read-out: c-Met IC50
Procedure: as §1
as §2, with “Met” for “KDR”, “R974-S1390 with A1209G and V1290L, 3.4” for “K790-V1356, 55”, “250 μM KKKGQEEEYVFIE, 1 mM sodium orthovanadate, 5 mM […],” for “0.33 mg/mL myelin basic protein,”

Human Axl = target: T2, Human Axl (Homo sapiens, UniProt P30530, Q764R); assay: Human AXL kinase assay (33P-phosphoryl transfer radiometric, KinaseProfiler); details: biochemical activity; 10 μM ATP
T2 construct: Human Axl (residues H473-A894 with Q764R, 161 nM); purchased Eurofins Pharma Discovery Services UK Limited (KinaseProfiler service)
T2 sequence (P30530 473-894 Q764R): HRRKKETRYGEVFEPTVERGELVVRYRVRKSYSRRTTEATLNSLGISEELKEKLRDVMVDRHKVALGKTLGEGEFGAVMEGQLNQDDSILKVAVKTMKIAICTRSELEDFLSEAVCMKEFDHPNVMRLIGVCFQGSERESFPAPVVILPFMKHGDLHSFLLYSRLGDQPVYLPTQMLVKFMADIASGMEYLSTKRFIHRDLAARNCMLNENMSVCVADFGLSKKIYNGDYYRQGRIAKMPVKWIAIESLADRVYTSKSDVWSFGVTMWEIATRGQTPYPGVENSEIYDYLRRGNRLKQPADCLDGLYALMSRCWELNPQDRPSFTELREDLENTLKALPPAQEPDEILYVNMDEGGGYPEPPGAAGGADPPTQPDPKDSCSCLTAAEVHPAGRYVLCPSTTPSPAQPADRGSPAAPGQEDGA
Procedure: as §1
as §2, with “Axl” for “KDR”, “H473-A894 with Q764R, 161” for “K790-V1356, 55”, “250 μM KKSRGDYMTMQIG,” for “0.33 mg/mL myelin basic protein,”, “[y-^33P-ATP].” for “[γ-^33P-ATP].”

Chain of Met (P08581 974-1390): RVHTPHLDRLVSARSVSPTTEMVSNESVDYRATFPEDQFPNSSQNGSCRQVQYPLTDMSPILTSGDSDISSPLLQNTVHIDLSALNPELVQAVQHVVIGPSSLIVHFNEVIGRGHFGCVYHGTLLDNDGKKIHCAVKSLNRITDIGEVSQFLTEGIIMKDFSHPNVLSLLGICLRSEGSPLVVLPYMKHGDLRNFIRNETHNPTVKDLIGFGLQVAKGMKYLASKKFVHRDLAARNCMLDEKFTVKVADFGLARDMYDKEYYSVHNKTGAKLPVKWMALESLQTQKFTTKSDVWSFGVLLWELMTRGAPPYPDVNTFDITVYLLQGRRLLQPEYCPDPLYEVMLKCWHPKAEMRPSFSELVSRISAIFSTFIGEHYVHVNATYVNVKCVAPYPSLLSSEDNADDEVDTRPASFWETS
Chain of KDR (P35968 790-1356): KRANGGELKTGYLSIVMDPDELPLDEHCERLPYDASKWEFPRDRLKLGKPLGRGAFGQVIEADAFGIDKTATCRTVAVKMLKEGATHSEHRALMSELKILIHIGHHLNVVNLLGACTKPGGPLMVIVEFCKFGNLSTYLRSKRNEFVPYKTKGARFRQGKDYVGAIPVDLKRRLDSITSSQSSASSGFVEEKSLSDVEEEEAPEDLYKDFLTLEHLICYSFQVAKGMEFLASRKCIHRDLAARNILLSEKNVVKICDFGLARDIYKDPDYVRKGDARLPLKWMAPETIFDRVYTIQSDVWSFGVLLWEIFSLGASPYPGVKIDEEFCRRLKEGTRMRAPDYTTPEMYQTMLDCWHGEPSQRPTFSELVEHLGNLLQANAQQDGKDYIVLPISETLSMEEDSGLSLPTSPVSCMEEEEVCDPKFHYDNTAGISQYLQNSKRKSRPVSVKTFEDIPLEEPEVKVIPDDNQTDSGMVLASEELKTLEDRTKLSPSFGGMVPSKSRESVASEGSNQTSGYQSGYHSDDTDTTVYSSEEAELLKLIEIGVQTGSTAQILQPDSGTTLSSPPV

SMILES | IC50 (KDR) [nM] | IC50 (Human Mer) [nM] | IC50 (Met) [nM] | IC50 (Human Axl) [nM]
O=C(Nc1ccc(F)cc1)C1(C(=O)Nc2ccc(Oc3ccnc4cc(-c5cnn(C6COC6)c5)ccc34)cc2)CC1 [Compound 24, 1-N′-(4-Fluorophenyl)-1-N-[4-[7-[1-(oxetan-3-yl)pyrazol-4-yl]quinolin-4-yl]oxyphenyl]cyclopropane-1,1-dicarboxamide] | 10 to 100 | ≤ 10 | ≤ 10 | ≤ 10
O=C(Nc1ccc(F)cc1)C1(C(=O)Nc2ccc(Oc3ccnc4cc(-c5cccnc5)ccc34)cc2)CC1 [Compound 25, 1-N′-(4-Fluorophenyl)-1-N-[4-(7-pyridin-3-ylquinolin-4-yl)oxyphenyl]cyclopropane-1,1-dicarboxamide] | 10 to 100 | ≤ 10 | ≤ 10 | 10 to 100
O=C(Nc1ccc(F)cc1)C1(C(=O)Nc2ccc(Oc3ccnc4cc(-c5ccncc5)ccc34)cc2)CC1 [Compound 26, 1-N′-(4-Fluorophenyl)-1-N-[4-(7-pyridin-4-ylquinolin-4-yl)oxyphenyl]cyclopropane-1,1-dicarboxamide] | 10 to 100 | ≤ 10 | ≤ 10 | 10 to 100
O=C(Nc1ccc(F)cc1)C1(C(=O)Nc2ccc(Oc3ccnc4cc(-c5cncnc5)ccc34)cc2)CC1 [Compound 27, 1-N′-(4-Fluorophenyl)-1-N-[4-(7-pyrimidin-5-ylquinolin-4-yl)oxyphenyl]cyclopropane-1,1-dicarboxamide] | ≤ 10 | ≤ 10 | ≤ 10 | ≤ 10
O=C(Nc1ccc(F)cc1)C1(C(=O)Nc2ccc(Oc3ccnc4cc(-c5ccnnc5)ccc34)cc2)CC1 [Compound 28, 1-N′-(4-Fluorophenyl)-1-N-[4-(7-pyridazin-4-ylquinolin-4-yl)oxyphenyl]cyclopropane-1,1-dicarboxamide] | 10 to 100 | ≤ 10 | ≤ 10 | 10 to 100
Cc1noc(C)c1-c1ccc2c(Oc3ccc(NC(=O)C4(C(=O)Nc5ccc(F)cc5)CC4)cc3)ccnc2c1 [Compound 53, 1-N-[4-[7-(3,5-Dimethyl-1,2-oxazol-4-yl)quinolin-4-yl]oxyphenyl]-1-N′-(4-fluorophenyl)cyclopropane-1,1-dicarboxamide] | 10 to 100 | 10 to 100 | 10 to 100 | 100 to 1000
Cn1nccc1-c1ccc2c(Oc3ccc(NC(=O)C4(C(=O)Nc5ccc(F)cc5)CC4)cc3)ccnc2c1 [Compound 54, 1-N′-(4-Fluorophenyl)-1-N-[4-[7-(2-methylpyrazol-3-yl)quinolin-4-yl]oxyphenyl]cyclopropane-1,1-dicarboxamide] | 10 to 100 | ≤ 10 | ≤ 10 | 10 to 100
O=C(Nc1ccc(F)cc1)C1(C(=O)Nc2ccc(Oc3ccnc4cc(-c5cnoc5)ccc34)cc2)CC1 [Compound 57, 1-N′-(4-Fluorophenyl)-1-N-[4-[7-(1,2-oxazol-4-yl)quinolin-4-yl]oxyphenyl]cyclopropane-1,1-dicarboxamide] | 10 to 100 | ≤ 10 | ≤ 10 | ≤ 10
O=C(Nc1ccc(F)cc1)C1(C(=O)Nc2ccc(Oc3ccnc4cc(-c5cnn(C6CCNCC6)c5)ccc34)cc2)CC1 [Compound 60, 1-N′-(4-Fluorophenyl)-1-N-[4-[7-(1-piperidin-4-ylpyrazol-4-yl)quinolin-4-yl]oxyphenyl]cyclopropane-1,1-dicarboxamide] | 10 to 100 | ≤ 10 | ≤ 10 | ≤ 10
CN1CCC(n2cc(-c3ccc4c(Oc5ccc(NC(=O)C6(C(=O)Nc7ccc(F)cc7)CC6)cc5)ccnc4c3)cn2)CC1 [Compound 61, 1-N′-(4-Fluorophenyl)-1-N-[4-[7-[1-(1-methylpiperidin-4-yl)pyrazol-4-yl]quinolin-4-yl]oxyphenyl]cyclopropane-1,1-dicarboxamide] | 10 to 100 | ≤ 10 | ≤ 10 | ≤ 10
CC(=O)N1CCC(n2cc(-c3ccc4c(Oc5ccc(NC(=O)C6(C(=O)Nc7ccc(F)cc7)CC6)cc5)ccnc4c3)cn2)CC1 [Compound 62, 1-N-[4-[7-[1-(1-Acetylpiperidin-4-yl)pyrazol-4-yl]quinolin-4-yl]oxyphenyl]-1-N′-(4-fluorophenyl)cyclopropane-1,1-dicarboxamide] | 10 to 100 | ≤ 10 | ≤ 10 | ≤ 10
C[Si](C)(C)C#Cc1ccc2c(Oc3ccc(NC(=O)C4(C(=O)Nc5ccc(F)cc5)CC4)cc3)ccnc2c1 [Compound 63, 1-N′-(4-Fluorophenyl)-1-N-[4-[7-(2-trimethylsilylethynyl)quinolin-4-yl]oxyphenyl]cyclopropane-1,1-dicarboxamide] | 100 to 1000 | 100 to 1000 | 10 to 100 | 100 to 1000
C#Cc1ccc2c(Oc3ccc(NC(=O)C4(C(=O)Nc5ccc(F)cc5)CC4)cc3)ccnc2c1 [Compound 64, 1-N-[4-(7-Ethynylquinolin-4-yl)oxyphenyl]-1-N′-(4-fluorophenyl)cyclopropane-1,1-dicarboxamide] | 10 to 100 | 10 to 100 | ≤ 10 | 10 to 100
O=C(Nc1ccc(F)cc1)C1(C(=O)Nc2ccc(Oc3ccnc4cc(-c5cnn[nH]5)ccc34)cc2)CC1 [Compound 65, 1-N′-(4-Fluorophenyl)-1-N-[4-[7-(1H-triazol-5-yl)quinolin-4-yl]oxyphenyl]cyclopropane-1,1-dicarboxamide] | 100 to 1000 | 100 to 1000 | 100 to 1000 | 100 to 1000
